Laboratory results as given in patent publication US10112937B2, “P2X7 modulators and methods of use” (Janssen Pharmaceutica NV, priority 2013, dated 2018).

Target: human P2X7 (Homo sapiens (Human), UniProt Q99572)
Experiment: P2X7 antagonism in human PBMCs (IL-1β release after LPS + Bz-ATP, ELISA)
Assay type: cell-based
Conditions: for PBMC 10 μM (% control): test compound 10 μM

human P2X7, sequence (Q99572 whole entry): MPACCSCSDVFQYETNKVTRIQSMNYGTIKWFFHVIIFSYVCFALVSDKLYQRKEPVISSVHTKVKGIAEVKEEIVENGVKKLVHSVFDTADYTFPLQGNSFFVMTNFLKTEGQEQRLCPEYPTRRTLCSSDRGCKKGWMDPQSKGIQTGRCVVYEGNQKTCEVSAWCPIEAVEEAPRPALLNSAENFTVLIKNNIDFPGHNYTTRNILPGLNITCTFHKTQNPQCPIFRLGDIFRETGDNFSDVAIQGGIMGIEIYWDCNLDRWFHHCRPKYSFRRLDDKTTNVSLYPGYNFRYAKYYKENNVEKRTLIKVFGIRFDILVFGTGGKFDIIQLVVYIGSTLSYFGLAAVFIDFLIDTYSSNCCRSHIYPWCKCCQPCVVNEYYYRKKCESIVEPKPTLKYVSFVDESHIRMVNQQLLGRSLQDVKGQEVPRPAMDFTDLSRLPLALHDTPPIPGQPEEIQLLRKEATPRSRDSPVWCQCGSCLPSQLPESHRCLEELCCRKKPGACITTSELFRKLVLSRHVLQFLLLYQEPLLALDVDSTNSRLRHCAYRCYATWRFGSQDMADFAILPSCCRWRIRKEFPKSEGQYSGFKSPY

Structure (SMILES)	PBMC 10 μM (% control) (human PBMCs)	PBMC 10 μM (% control) (LPS 30 ng/ml + 0.5 mM Bz-ATP)	PBMC 1 μM (% control) (human PBMCs, test compound 1 μM)
CC1c2ncn(-c3ccccn3)c2CCN1C(=O)c1cccc(C(F)(F)F)c1F (single isomer, unassigned) [Example 42, (4R*)-5-{[2-Fluoro-3-(trifluoromethyl)phenyl]carbonyl}-4-methyl-1-pyridin-2-yl-4,5,6,7-tetrahydro-1H-imidazo[4,5-c]pyridine]	5.8	5.8	
C[C@@H]1c2ncn(-c3ccc(F)cc3)c2CCN1C(=O)c1cccc(C(F)(F)F)c1Cl (single isomer, unassigned) [Example 46, (4R*)-5-{[2-Chloro-3-(trifluoromethyl)phenyl]carbonyl}-1-(4-fluorophenyl)-4-methyl-4,5,6,7-tetrahydro-1H-imidazo[4,5-c]pyridine]	2.1	2.1	
C[C@H]1c2ncn(-c3ccc(F)cc3)c2CCN1C(=O)c1cccc(C(F)(F)F)c1Cl (single isomer, unassigned) [Example 47]	−1.1		
C[C@H]1c2nnn(-c3cnccn3)c2CCN1C(=O)c1cccc(C(F)(F)F)c1Cl (single isomer, unassigned) [Example 75, (4S*)-5-{[2-Chloro-3-(trifluoromethyl)phenyl]carbonyl}-4-methyl-1-pyrazin-2-yl-4,5,6,7-tetrahydro-1H-[1,2,3]triazolo[4,5-c]pyridine]	−0.3		5.2
C[C@H]1c2nnn(-c3ncccn3)c2CCN1C(=O)c1cccc(C(F)(F)F)c1Cl (single isomer, unassigned) [Example 87, (4S*)-5-{[2-Chloro-3-(trifluoromethyl)phenyl]carbonyl}-4-methyl-1-pyrimidin-2-yl-4,5,6,7-tetrahydro-1H-[1,2,3]triazolo[4,5-c]pyridine]	3.3		
CC1c2nnn(-c3ncccn3)c2CCN1C(=O)c1cccc(C(F)(F)F)c1Cl (single isomer, unassigned) [Example 88, (4R*)-5-{[2-Chloro-3-(trifluoromethyl)phenyl]carbonyl}-4-methyl-1-pyrimidin-2-yl-4,5,6,7-tetrahydro-1H-[1,2,3]triazolo[4,5-c]pyridine]	18.2		
C[C@@H]1Cc2c(nnn2-c2ccccn2)CN1C(=O)c1cccc(C(F)(F)F)c1Cl (single isomer, unassigned) [Example 119, 5-{[2-Chloro-3-(trifluoromethyl)phenyl]carbonyl}-(R*)-6-methyl-1-pyridin-2-yl-4,5,6,7-tetrahydro-1H-[1,2,3]triazolo[4,5-c]pyridine]	20.0		
C[C@@H]1c2nnn(-c3cc[nH]n3)c2CCN1C(=O)c1cccc(C(F)(F)F)c1Cl (single isomer, unassigned) [Example 133, (R*)-(2-Chloro-3-(trifluoromethyl)phenyl)(4-methyl-1-(1H-pyrazol-5-yl)-6,7-dihydro-1H-[1,2,3]triazolo[4,5-c]pyridin-5(4H)-yl)methanone]	−0.2		
C[C@@H]1c2nnn(-c3cnccn3)c2CCN1C(=O)c1ccc(F)c(Cl)c1Cl (single isomer, unassigned) [Example 143, (R*)-(2,3-Dichloro-4-fluorophenyl)(4-methyl-1-(pyrazin-2-yl)-6,7-dihydro-1H-[1,2,3]triazolo[4,5-c]pyridin-5(4H)-yl)methanone]	58.0		
C[C@H]1c2nnn(-c3cccc(F)n3)c2CCN1C(=O)c1cccc(C(F)(F)F)c1Cl (single isomer, unassigned) [Example 147, (S*)-(2-Chloro-3-(trifluoromethyl)phenyl)(1-(6-fluoropyridin-2-yl)-4-methyl-6,7-dihydro-1H-[1,2,3]triazolo[4,5-c]pyridin-5(4H)-yl)methanone]	−8.9		
C[C@@H]1c2nnn(-c3cc(F)ccn3)c2CCN1C(=O)c1cccc(C(F)(F)F)c1Cl (single isomer, unassigned) [Example 148, (R*)-(2-Chloro-3-(trifluoromethyl)phenyl)(1-(4-fluoropyridin-2-yl)-4-methyl-6,7-dihydro-1H-[1,2,3]triazolo[4,5-c]pyridin-5(4H)-yl)methanone]	−9.6		
C[C@H]1c2nnn(-c3cc(F)ccn3)c2CCN1C(=O)c1cccc(C(F)(F)F)c1Cl (single isomer, unassigned) [Example 149, (S*)-(2-Chloro-3-(trifluoromethyl)phenyl)(1-(4-fluoropyridin-2-yl)-4-methyl-6,7-dihydro-1H-[1,2,3]triazolo[4,5-c]pyridin-5(4H)-yl)methanone]	3.5		
C[C@H]1c2nnn(-c3ncc(F)cn3)c2CCN1C(=O)c1cccc(C(F)(F)F)c1Cl (single isomer, unassigned) [Example 157, (S*)-(2-Chloro-3-(trifluoromethyl)phenyl)(1-(5-fluoropyrimidin-2-yl)-4-methyl-6,7-dihydro-1H-[1,2,3]triazolo[4,5-c]pyridin-5(4H)-yl)methanone]	−1.4		
C[C@H]1Cc2c(nnn2-c2ncccc2F)CN1C(=O)c1cccc(Cl)c1Cl (single isomer, unassigned) [Example 166, (6S*)-5-[(2,3-Dichlorophenyl)carbonyl]-1-(3-fluoropyridin-2-yl)-6-methyl-4,5,6,7-tetrahydro-1H-[1,2,3]triazolo[4,5-c]pyridine]	0.6		
C[C@@H]1Cc2c(nnn2-c2ncccc2F)CN1C(=O)c1cccc(C(F)(F)F)c1Cl (single isomer, unassigned) [Example 167, (6R*)-5-{[2-Chloro-3-(trifluoromethyl)phenyl]carbonyl}-1-(3-fluoropyridin-2-yl)-6-methyl-4,5,6,7-tetrahydro-1H-[1,2,3]triazolo[4,5-c]pyridine]	4.2		
C[C@H]1Cc2c(nnn2-c2ncccc2F)CN1C(=O)c1cccc(C(F)(F)F)c1Cl (single isomer, unassigned) [Example 168, (6S*)-5-{[2-Chloro-3-(trifluoromethyl)phenyl]carbonyl}-1-(3-fluoropyridin-2-yl)-6-methyl-4,5,6,7-tetrahydro-1H-[1,2,3]triazolo[4,5-c]pyridine]	−4.2		
C[C@@H]1c2nnn(-c3ccn(C)n3)c2CCN1C(=O)c1cccc(C(F)(F)F)c1Cl (single isomer, unassigned) [Example 169, (R*)-(2-Chloro-3-(trifluoromethyl)phenyl)(4-methyl-1-(1-methyl-1H-pyrazol-3-yl)-6,7-dihydro-1H-[1,2,3]triazolo[4,5-c]pyridin-5(4H)-yl)methanone]	95.0		
C[C@H]1c2nnn(-c3ccn(C)n3)c2CCN1C(=O)c1cccc(C(F)(F)F)c1Cl (single isomer, unassigned) [Example 170, (S*)-(2-Chloro-3-(trifluoromethyl)phenyl)(4-methyl-1-(1-methyl-1H-pyrazol-3-yl)-6,7-dihydro-1H-[1,2,3]triazolo[4,5-c]pyridin-5(4H)-yl)methanone]	−5.7		
C[C@H]1c2nnn(-c3ccn(CCF)n3)c2CCN1C(=O)c1cccc(C(F)(F)F)c1Cl (single isomer, unassigned) [Example 172, (S*)-(2-Chloro-3-(trifluoromethyl)phenyl)(1-(1-(2-fluoroethyl)-1H-pyrazol-3-yl)-4-methyl-6,7-dihydro-1H-[1,2,3]triazolo[4,5-c]pyridin-5(4H)-yl)methanone]	−6.0		
C[C@H]1c2nnn(-c3ncc(F)cn3)c2CCN1C(=O)c1cccc(C(F)(F)F)c1F (single isomer, unassigned) [Example 178, (S*)-(2-fluoro-3-(trifluoromethyl)phenyl)(1-(5-fluoropyrimidin-2-yl)-4-methyl-6,7-dihydro-1H-[1,2,3]triazolo[4,5-c]pyridin-5(4H)-yl)methanone]	−4.7	−4.7	
Cc1cc(C)nc(-n2nnc3c2CCN(C(=O)c2cccc(C(F)(F)F)c2Cl)[C@@H]3C)n1 (single isomer, unassigned) [Example 181, (R*)-(2-chloro-3-(trifluoromethyl)phenyl)(1-(4,6-dimethylpyrimidin-2-yl)-4-methyl-6,7-dihydro-1H-[1,2,3]triazolo[4,5-c]pyridin-5(4H)-yl)methanone]	−0.1	−0.1	
C[C@H]1Cc2c(nnn2-c2ncc(F)cn2)CN1C(=O)c1ccnc(C(F)(F)F)c1Cl (single isomer, unassigned) [Example 183, (R*)-(3-chloro-2-(trifluoromethyl)pyridin-4-yl)(1-(5-fluoropyrimidin-2-yl)-6-methyl-6,7-dihydro-1H-[1,2,3]triazolo[4,5-c]pyridin-5(4H)-yl)methanone]	−1.2	−1.2	
Cc1ccnc(-n2nnc3c2CCN(C(=O)c2cccc(C(F)(F)F)c2Cl)[C@@H]3C)c1 (single isomer, unassigned) [Example 185, (R*)-(2-chloro-3-(trifluoromethyl)phenyl)(4-methyl-1-(4-methylpyridin-2-yl)-6,7-dihydro-1H-[1,2,3]triazolo[4,5-c]pyridin-5(4H)-yl)methanone]	−3.7	−3.7	
Cc1ccnc(-n2nnc3c2CCN(C(=O)c2cccc(C(F)(F)F)c2Cl)[C@H]3C)c1 (single isomer, unassigned) [Example 186, (S*)-(2-chloro-3-(trifluoromethyl)phenyl)(4-methyl-1-(4-methylpyridin-2-yl)-6,7-dihydro-1H-[1,2,3]triazolo[4,5-c]pyridin-5(4H)-yl)methanone]	−0.5	−0.5	
Cc1c(C(=O)N2Cc3nnn(-c4ncc(F)cn4)c3C[C@H]2C)ccnc1C(F)(F)F (single isomer, unassigned) [Example 187, (S*)-(1-(5-fluoropyrimidin-2-yl)-6-methyl-6,7-dihydro-1H-[1,2,3]triazolo[4,5-c]pyridin-5(4H)-yl)(3-methyl-2-(trifluoromethyl)pyridin-4-yl)methanone]	−0.6	−0.6	
